Results taken from patent publication US20200323962A1, “LIPOPHILIC PEPTIDE PRODRUGS” (YISSUM RESEARCH DEVELOPMENT COMPANY OF THE HEBREW …, priority 2017, published 2020).
Read-outs that look alike come from different tables or passages of the source.

Tests used:
[1] = pH 7.4, LogD, pH 7.4 (mean / reported value)
Protocol: (§1) Log D. Determination of distribution coefficients were performed as follows:
(§2) Incubations were carried out in Eppendorf-type polypropylene microtubes in triplicates. […] Phase separation was assured by centrifugation for 2 min at 6000 rpm. The octanol phase was diluted 100-fold with 40% acetonitrile, and aqueous phase was analyzed without dilution. The samples (both phases) were analyzed using HPLC system coupled with tandem mass spectrometer.

in vitro = details: human; for efflux ratio at 90 min, 10 µM: Caco-2, pH 7.4, Net efflux (quotient of Papp (BA) to Papp (AB)); for Papp A→B at 90 min, 10 μM: Caco-2, pH 7.4, Papp (AB); for Papp B→A at 90 min, 10 μM: Caco-2, pH 7.4, Papp (BA)
Caco-2 cells [2] = tested on: Caco-2 cells
[3] = for Papp A→B: Caco-2, Papp (AB); for Papp B→A: Caco-2, Papp (BA)
[4] = PAMPA, pH 7.4
Description: (§3) The Parallel Artificial Membrane Permeability Assay (PAMPA) is used as an in vitro model of passive, transcellular permeation. […] This assay also allows evaluation of permeability over a large pH range, which is valuable for a preliminary understanding of how orally delivered compounds might be absorbed across the entire gastrointestinal tract. […] Depending upon the types of lipids used and other experimental conditions, PAMPA may be designed to model absorption in gastrointestinal tract (PAMPA-GIT), blood-brain barrier penetration (PAMPA-BBB) or skin penetration (Skin PAMPA). All steps of the PAMPA were carried out according to pION Inc. PAMPA Explorer™ Manual. The main principle of the assay is the incubation of compound in donor chamber (a well in Donor Plate) with aqueous buffer, which is separated from acceptor chamber (a well in Acceptor Plate) with another buffer by a phospholipid or hydrocarbon membrane fixed on a filter support. After the test, concentrations in the corresponding donor and acceptor wells are measured and permeability is calculated. GIT model was simulated using GIT-0 phospholipid mix. […] All compounds were tested in triplicates. Prisma HT buffer (pH 7.4) containing 50 μM test compounds and 0.5% DMSO were added into the Donor Plate wells. Acceptor Sink buffer was added into each well of the acceptor plate. Incubation was done at room temperature for 4 hours without stirring. […] Compounds with low UV-Vis signal were detected by LC-MS/MS method. Then the apparent permeability coefficient was calculated.

Caco-2 cells [5] = experiment: Caco-2 permeability study (Examples 1-4)
Protocol: The culture growth medium consisted of DMEM supplemented with 10% heat-inactivated FBS, 1% MEM-NEAA, 2 mM 1-glutamine, 1 mM sodium pyruvate, 50,000 units Penicillin G Sodium and 50 mg Streptomycin Sulfate (Biological Industries). The medium was replaced every other day.
Cells (passage 55-60) were seeded at density of 25×10^5 cells/cm^2 on untreated culture inserts of polycarbonate membrane with 0.4 μm pores and surface area of 1.1 cm^2. Culture inserts containing Caco-2 monolayer were placed in 12 mm transwell plates (Corning). Culture medium was replaced every other day. Transepithelial Electrical Resistance (TEER) values were measured by Millicell ERS-2 System (Millipore) a week after seeding up to experiment day (21-23 days) to ensure proliferation and differentiation of the cells. When the cells were fully differentiated and TEER values became stable (200-500 Ω·cm^2). The TEER values were compared to control inserts containing only the medium.
The experiment was initiated by replacing the medium from both sides by apical (600 μl) and basolateral (1500 μl) buffers, both warmed to 37° C. The Cells were incubated with the buffers solutions for 30 min at 37° C. on a shaker (100 cycles/min). […] 50 μl samples were taken from the apical side immediately at the beginning of the experiment, resulting in 550 μl apical volume during the experiment.
Permeability Coefficient (Papp) for each compound was calculated from the linear plot of drug accumulated versus time, using the following equation:
Where dq/dt is steady state appearance rate of the compound on the receiver side, C0 is the initial concentration of the drug on the donor side, and A is the exposed tissue surface area (1.1 cm^2).
Transport studies were performed through the Caco-2 monolayer mounted in an Ussing-type chamber set-up with continuous trans-epithelial electrical resistance (TEER) measurements to assure TEER between 800 and 1200 Ω*cm^2. HBSS supplemented with 10 mM IVIES and adjusted to pH 6.5 were used as transport medium in the donor compartment and pH 7.4 in the acceptor compartment. The donor solution contained the test compound.
Permeability mechanism of compounds is studied by evaluating the Papp of a compound from the apical to the basolateral (A-to-B) membrane and its Papp from the basolateral to the apical membrane (B-to-A). The A-to-B assay simulates passive and transporter-mediated permeability. The B-to-A assay is essential complementary experiment indicative of the activity of P-gp. The ratio of the A-to-B and B-to A Papps (efflux ratio) is calculated to determine the permeability mechanism.

PAMPA-GIT permeability = details: pH 7.4, 4 hours
Description: as §3

Caco-2 cells [6] = experiment: Caco-2 A-B and B-A permeability with/without verapamil (Example 6); details: 10 μM, 90 min, no verapamil
[7] = as above; details: human, Caco-2, pH 7.4
[8] = Log D determination (octanol/PBS pH 7.4); details: pH 7.4, octanol/PBS
Protocol: as §1, §2

P-gp = experiment: in vitro; details: human, Caco-2, pH 7.4, Net efflux in the presence of Verapamil

Structure (SMILES): C[C@@H]1NC(=O)[C@H](C)NC(=O)[C@@H](C)N(C)C(=O)[C@H](C)N(C)C(=O)[C@H](C)NC(=O)[C@H](C)NC1=O [1,6CHA, *aAAAA*A]
- logD [1]: -0.97
- efflux ratio at 90 min, 10 µM (in vitro): 1.1
- Papp (AB), replicate 1 (Caco-2 cells [2]): 0.0 10^−6 cm/s
- Papp A→B ([3]; Mean): 0.1 ×10⁻⁶ cm/s
- Papp A→B ([3]; replicate 2): 0.1 ×10⁻⁶ cm/s
- Papp A→B ([3]; replicate 3): 0.1 ×10⁻⁶ cm/s
- Papp B→A ([3]; Mean): 0.1 ×10⁻⁶ cm/s
- Papp B→A ([3]; replicate 1): 0.1 ×10⁻⁶ cm/s
- Papp B→A ([3]; replicate 2): 0.1 ×10⁻⁶ cm/s
- Papp B→A ([3]; replicate 3): 0.2 ×10⁻⁶ cm/s
- Mass retention [4]: 27%
- Permeability, Mean [4]: <−7 Log10[10^−6 cm/s]
- Permeability, replicate 1 [4]: <−7 Log10[10^−6 cm/s]
- Permeability, replicate 2 [4]: <−7 Log10[10^−6 cm/s]
- Permeability, replicate 3 [4]: <−7 Log10[10^−6 cm/s]

Structure (SMILES): CC(C)[C@@H]1C(=O)N[C@@H](CCCNC(=N)N)C(=O)NCC(=O)N[C@@H](CC(=O)O)C(=O)N[C@@H](C)C(=O)N(C)[C@@H](C)C(=O)N1C [peptide 29, c(*vRGDA*A)]
- efflux ratio (Caco-2 cells [5]; Table 3): 2.14
- Papp AB (Caco-2 cells [5]; Table 3, n = 3): 0.07 ± 0.01 cm/s × 10^6
- Papp BA (Caco-2 cells [5]; Table 3, n = 3): 0.15 ± 0.01 cm/s × 10^6
- Caco-2 permeability (Caco-2 cells [5]; qualitative): significant lower permeability
- Mass retention (PAMPA-GIT permeability): 15%
- Permeability, Mean (PAMPA-GIT permeability): <−7 Log10[10^−6 cm/s]
- Permeability, replicate 1 (PAMPA-GIT permeability): <−7 Log10[10^−6 cm/s]
- Permeability, replicate 2 (PAMPA-GIT permeability): <−7 Log10[10^−6 cm/s]
- Permeability, replicate 3 (PAMPA-GIT permeability): <−7 Log10[10^−6 cm/s]
- Papp (AB), Mean (Caco-2 cells [6]): 0.7 10^−6 cm/s
- Papp (AB), replicate 1 (Caco-2 cells [6]): 1.0 10^−6 cm/s
- Papp (AB), replicate 2 (Caco-2 cells [6]): 0.2 10^−6 cm/s
- Papp (AB), replicate 3 (Caco-2 cells [6]): 0.9 10^−6 cm/s
- Papp (BA), Mean (Caco-2 cells [6]): 0.3 10^−6 cm/s
- Papp (BA), replicate 1 (Caco-2 cells [6]): 0.3 10^−6 cm/s
- Papp (BA), replicate 2 (Caco-2 cells [6]): 0.4 10^−6 cm/s
- Papp (BA), replicate 3 (Caco-2 cells [6]): 0.2 10^−6 cm/s
- efflux ratio at 90 min, 10 µM [7]: 0.4
- logD ([8]; pH 7.4, LogD, pH 7.4 (mean in parentheses below reported bound)): -2.84
- LogD, pH 7.4 (mean / reported value) [8]: <−1

Structure (SMILES): C[C@H]1O[C@@H](O[C@H]2[C@@H](O)C[C@H](O[C@H]3[C@@H](O)C[C@H](O[C@H]4CC[C@@]5(C)[C@H](CC[C@@H]6[C@@H]5C[C@@H](O)[C@]5(C)[C@@H](C7=CC(=O)OC7)CC[C@]65O)C4)O[C@@H]3C)O[C@@H]2C)C[C@H](O)[C@@H]1O [Digoxin]
- efflux ratio at 90 min, 10 µM (P-gp): 1.5
- efflux ratio at 90 min, 10 µM (in vitro): 28.6
- Papp A→B at 90 min, 10 μM (in vitro; Mean): 0.4 ×10⁻⁶ cm/s
- Papp A→B at 90 min, 10 μM (in vitro; replicate 1): 0.4 ×10⁻⁶ cm/s
- Papp A→B at 90 min, 10 μM (in vitro; replicate 3): 0.5 ×10⁻⁶ cm/s
- Papp B→A at 90 min, 10 μM (in vitro; Mean): 12 ×10⁻⁶ cm/s
- Papp B→A at 90 min, 10 μM (in vitro; replicate 1): 9.4 ×10⁻⁶ cm/s
- Papp B→A at 90 min, 10 μM (in vitro; replicate 2): 12 ×10⁻⁶ cm/s
- Papp B→A at 90 min, 10 μM (in vitro; replicate 3): 14.7 ×10⁻⁶ cm/s
